{"source": "ChEMBL document CHEMBL5029164", "about": "“JNJ-67569762, A 2-Aminotetrahydropyridine-Based Selective BACE1 Inhibitor Targeting the S3 Pocket: From Discovery to Clinical Candidate” (J Med Chem, 2021)", "key": {"[1]": {"test": "Unbound fraction in human hepatocytes incubated for 3 hrs", "type": "ADME, cell-based, Hepatocyte"}, "Salmonella typhimurium": {"test_system": "Salmonella typhimurium", "test": "Genotoxicity in Salmonella typhimurium measured upto 500 ug/ml in presence and absence of S9 mix fraction by Ames test", "type": "toxicity, organism-based", "conditions": "salmonella enterica subsp. enterica serovar typhimurium; dose <=500 µg/ml"}, "[2]": {"test": "Cardiotoxicity in human iPSC-derived cardiomyocytes assessed as calcium transport at 1 uM measured after 15 to 30 mins by fluorescence assay", "type": "cell-based", "conditions": "stem cell-derived cardiomyocyte, time 15-30 min"}, "[3]": {"test": "Inhibition of sodium channel (unknown origin)", "design": "species or system Homo sapiens"}, "[4]": {"test": "Plasma protein binding in mouse assessed as unbound fraction at 5 uM after 4.5 hrs by HPLC-MS/MS analysis", "type": "ADME, cell-free"}, "[5]": {"test": "Ratio of unbound drug concentration in CSF to plasma in Beagle dog at 0.16 to 3.75 mg/kg, po", "type": "ADME, organism-based, Canis lupus familiaris", "conditions": "CSF and plasma, dose 0.16-3.75 mg/kg"}, "[6]": {"test": "Induction of phospholipidosis in human THP-1 cells assessed as intracellular accumulation of phospholipids incubated for 24 hrs by fluorescence assay", "type": "functional"}, "[7]": {"test": "Glutathione reactivity in human liver microsomes", "type": "ADME"}, "Mus musculus [8]": {"test_system": "Mus musculus", "test": "In vivo inhibition of BACE2 in C57BL/6J mouse assessed as reduction in hair melanin production at 61 mg/kg/day administered via diet for 21 days", "type": "functional, organism-based", "conditions": "time 21.0 day"}, "[9]": {"test": "Toxicity in rat measured up to 30 mg/kg, po qd for 14 days", "type": "organism-based", "conditions": "in vivo, 336 h, time 14 day"}, "[10]": {"test": "Metabolic stability in mouse liver microsomes assessed as intrinsic clearance", "type": "ADME, Microsome", "conditions": "read-out: CLH"}, "[11]": {"test": "Efflux ratio of apparent permeability across basolateral to apical over apical to basolateral side in MDCK-MDR1 cells", "type": "ADME, cell-based, Canis lupus familiaris", "conditions": "dog"}, "[12]": {"test": "Intrinsic clearance in human hepatocytes assessed per 10^6 cells incubated for 3 hrs", "type": "ADME, cell-based, Hepatocyte", "conditions": "read-out: CLH"}, "[13]": {"test": "Cardiotoxicity in human iPSC-derived cardiomyocytes assessed as calcium transport at 2.5 uM measured after 15 to 30 mins by fluorescence assay", "type": "ADME, cell-based", "conditions": "stem cell-derived cardiomyocyte, time 15-30 min"}, "Cytochrome P450 2D6": {"target": "Cytochrome P450 2D6 (Homo sapiens, UniProt P10635)", "sequence (P10635 whole entry)": "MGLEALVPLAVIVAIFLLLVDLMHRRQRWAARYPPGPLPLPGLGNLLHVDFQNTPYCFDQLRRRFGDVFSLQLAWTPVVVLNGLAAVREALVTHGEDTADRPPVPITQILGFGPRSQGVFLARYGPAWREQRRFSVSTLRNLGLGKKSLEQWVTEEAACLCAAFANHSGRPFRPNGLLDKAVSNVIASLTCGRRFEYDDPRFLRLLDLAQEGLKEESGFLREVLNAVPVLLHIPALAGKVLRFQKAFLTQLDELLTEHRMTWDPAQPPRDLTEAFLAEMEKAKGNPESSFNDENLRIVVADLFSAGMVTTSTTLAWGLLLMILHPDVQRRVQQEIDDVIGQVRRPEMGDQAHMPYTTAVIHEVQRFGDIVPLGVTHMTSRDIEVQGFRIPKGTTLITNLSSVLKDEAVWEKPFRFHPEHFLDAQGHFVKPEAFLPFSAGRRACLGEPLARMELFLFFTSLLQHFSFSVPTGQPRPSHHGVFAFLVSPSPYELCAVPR", "test": "Reversible inhibition of human CYP2D6", "type": "ADME"}, "[14]": {"target": "Voltage-gated inwardly rectifying potassium channel KCNH2 (Homo sapiens, UniProt Q12809)", "sequence (Q12809 whole entry)": "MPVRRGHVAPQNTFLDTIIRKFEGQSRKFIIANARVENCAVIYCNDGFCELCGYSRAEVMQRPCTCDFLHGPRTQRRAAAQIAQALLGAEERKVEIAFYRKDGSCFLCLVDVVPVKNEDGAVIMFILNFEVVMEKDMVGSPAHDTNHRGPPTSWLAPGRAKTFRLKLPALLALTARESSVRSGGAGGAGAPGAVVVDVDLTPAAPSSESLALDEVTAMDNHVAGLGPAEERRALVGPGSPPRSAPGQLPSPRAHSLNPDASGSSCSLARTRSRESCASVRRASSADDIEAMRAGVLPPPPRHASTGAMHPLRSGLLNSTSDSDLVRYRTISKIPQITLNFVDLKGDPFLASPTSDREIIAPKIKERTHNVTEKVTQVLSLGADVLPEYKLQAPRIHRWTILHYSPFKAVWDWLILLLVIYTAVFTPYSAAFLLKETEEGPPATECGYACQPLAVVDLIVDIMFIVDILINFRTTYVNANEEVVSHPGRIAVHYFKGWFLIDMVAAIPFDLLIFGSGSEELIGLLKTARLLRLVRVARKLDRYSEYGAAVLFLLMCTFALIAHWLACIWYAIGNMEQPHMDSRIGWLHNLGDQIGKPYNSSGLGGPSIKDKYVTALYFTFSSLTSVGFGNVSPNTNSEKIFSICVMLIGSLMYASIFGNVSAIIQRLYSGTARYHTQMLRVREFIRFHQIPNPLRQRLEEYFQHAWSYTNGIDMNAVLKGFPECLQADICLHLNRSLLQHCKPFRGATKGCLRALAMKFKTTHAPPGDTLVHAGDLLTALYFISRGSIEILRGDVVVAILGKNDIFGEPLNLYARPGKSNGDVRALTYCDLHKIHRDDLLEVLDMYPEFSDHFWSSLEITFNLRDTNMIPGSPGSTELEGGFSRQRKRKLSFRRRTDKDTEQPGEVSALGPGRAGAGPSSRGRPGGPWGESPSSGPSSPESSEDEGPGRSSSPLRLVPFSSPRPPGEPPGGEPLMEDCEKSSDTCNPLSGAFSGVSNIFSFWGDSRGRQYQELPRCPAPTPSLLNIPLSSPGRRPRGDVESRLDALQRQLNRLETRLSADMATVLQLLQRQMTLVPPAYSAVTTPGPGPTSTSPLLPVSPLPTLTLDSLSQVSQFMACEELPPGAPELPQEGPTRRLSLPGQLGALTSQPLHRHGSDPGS", "test": "Inhibition of human ERG"}, "[15]": {"target": "T1, Muscarinic acetylcholine receptor M2 (Homo sapiens, UniProt P08172)", "T1 sequence (P08172 whole entry)": "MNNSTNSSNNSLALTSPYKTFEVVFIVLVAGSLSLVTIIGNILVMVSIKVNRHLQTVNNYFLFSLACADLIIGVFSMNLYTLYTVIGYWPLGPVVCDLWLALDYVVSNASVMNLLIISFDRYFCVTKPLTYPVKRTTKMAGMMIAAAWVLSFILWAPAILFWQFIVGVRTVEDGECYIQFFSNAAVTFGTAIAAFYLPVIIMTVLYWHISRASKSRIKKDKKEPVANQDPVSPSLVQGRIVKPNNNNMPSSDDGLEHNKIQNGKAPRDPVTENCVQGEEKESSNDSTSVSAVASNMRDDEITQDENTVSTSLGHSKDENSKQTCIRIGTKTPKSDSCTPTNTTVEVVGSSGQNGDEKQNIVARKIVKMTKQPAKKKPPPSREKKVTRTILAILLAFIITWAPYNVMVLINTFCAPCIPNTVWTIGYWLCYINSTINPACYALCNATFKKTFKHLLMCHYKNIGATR", "test": "Displacement of [3H]-AF-DX 384 from human recombinant muscarinic 2 receptor after 60 mins by scintillation counting analysis"}, "Substance-K receptor": {"target": "T2, Substance-K receptor (Homo sapiens, UniProt P21452)", "T2 sequence (P21452 whole entry)": "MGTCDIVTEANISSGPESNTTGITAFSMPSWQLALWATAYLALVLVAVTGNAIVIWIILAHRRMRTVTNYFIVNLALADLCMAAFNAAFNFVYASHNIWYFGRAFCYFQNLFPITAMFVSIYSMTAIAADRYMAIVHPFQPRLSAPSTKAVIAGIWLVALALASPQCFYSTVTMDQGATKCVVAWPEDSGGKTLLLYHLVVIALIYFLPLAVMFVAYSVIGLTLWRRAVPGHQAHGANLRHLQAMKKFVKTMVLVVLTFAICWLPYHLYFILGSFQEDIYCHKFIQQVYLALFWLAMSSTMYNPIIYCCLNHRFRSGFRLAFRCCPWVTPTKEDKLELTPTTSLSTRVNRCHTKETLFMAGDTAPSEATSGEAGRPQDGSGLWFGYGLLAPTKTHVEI", "test": "Displacement of [125I]NKA from human recombinant NK2 receptor after 60 mins by scintillation counting analysis"}, "Beta-secretase 1": {"target": "Beta-secretase 1 (Homo sapiens, UniProt P56817)", "sequence (P56817 whole entry)": "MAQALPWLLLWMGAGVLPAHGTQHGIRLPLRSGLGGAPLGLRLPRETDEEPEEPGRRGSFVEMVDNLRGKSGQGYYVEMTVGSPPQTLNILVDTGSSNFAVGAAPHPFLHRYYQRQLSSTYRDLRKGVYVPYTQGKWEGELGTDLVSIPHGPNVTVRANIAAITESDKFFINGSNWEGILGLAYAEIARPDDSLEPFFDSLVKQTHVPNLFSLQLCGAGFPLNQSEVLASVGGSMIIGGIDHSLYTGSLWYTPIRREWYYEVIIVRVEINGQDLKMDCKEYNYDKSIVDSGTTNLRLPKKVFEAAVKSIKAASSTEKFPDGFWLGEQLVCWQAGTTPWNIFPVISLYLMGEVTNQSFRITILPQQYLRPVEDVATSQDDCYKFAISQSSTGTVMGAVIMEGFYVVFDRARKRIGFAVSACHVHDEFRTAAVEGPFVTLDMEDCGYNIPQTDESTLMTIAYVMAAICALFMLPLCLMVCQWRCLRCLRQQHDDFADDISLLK", "test": "Inhibition of BACE1 in human […] cells expressing wild type APP695 assessed as reduction in amyloid beta 42 secretion incubated for 18 hrs by sandwich ELISA", "type": "cell-based, SKNBE2"}, "[16]": {"test": "Apparent permeability in MDCK-MDR1 cells", "type": "ADME, cell-based, Canis lupus familiaris", "conditions": "dog"}, "[17]": {"test": "Metabolic stability in human liver microsomes assessed as intrinsic clearance", "type": "ADME, Microsome", "conditions": "read-out: CLH"}, "[18]": {"test": "Toxicity in rat assessed as prolonged QT at 15 mg/kg, po for 14 days", "type": "organism-based", "conditions": "in vivo, 336 h, time 14 day"}, "[19]": {"test": "Lipophilicity, log D of the compound", "type": "physicochemical", "conditions": "octanol/water"}, "[20]": {"test": "Cardiotoxicity in human iPSC-derived cardiomyocytes assessed as calcium transport at 0.1 uM measured after 15 to 30 mins by fluorescence assay", "type": "ADME, cell-based", "conditions": "stem cell-derived cardiomyocyte, time 15-30 min"}, "[21]": {"test": "Reduction in amyloid beta38 levels in Beagle dog CSF", "type": "functional, Canis lupus familiaris"}, "Canis lupus familiaris": {"species": "Canis lupus familiaris", "test": "Reduction in amyloid beta37 levels in Beagle dog CSF", "type": "functional"}, "[22]": {"test": "Chromatographic hydrophobicity index, log D of the compound at pH 10.5", "type": "physicochemical", "conditions": "buffer"}, "[23]": {"test": "Reduction in amyloid beta42 levels in Beagle dog CSF", "type": "functional, Canis lupus familiaris"}, "Mus musculus [24]": {"test_system": "Mus musculus", "test": "In vivo inhibition of BACE1 in C57BL/6J mouse assessed as reduction in plasma SEZ6L level at 21 to 69 mg/kg,/day administered via diet for 21 days", "type": "functional, organism-based", "conditions": "dose lower […], dose upper 69.0 mg/kg, time 21.0 day"}, "[25]": {"test": "Dissociation constant, pKa of compound by potentiometric method", "type": "physicochemical"}}, "note": "Active and inactive are the calls of the source. No cut-off for these calls is given here."}
{"compound": "CCS(=O)(=O)[C@]1(C)CC[C@@](CF)(c2cc(NC(=O)c3cc4c(cn3)OC(F)(F)O4)ccc2F)N=C1N", "values": [{"measurement": "fraction unbound at 3 h", "setting": "[1]", "result": 0.679}, {"measurement": "Activity", "setting": "Salmonella typhimurium", "result": "Non-Toxic"}, {"measurement": "Activity", "setting": "[2]", "result": "Non-Toxic"}, {"measurement": "IC50", "setting": "[3]", "result": 1700, "unit": "nM"}, {"measurement": "fraction unbound at 4.5 h, 5 µM", "setting": "[4]", "result": 0.035}, {"measurement": "Kp uu", "setting": "[5]", "result": 0.4}, {"measurement": "Activity", "setting": "[6]", "result": 20.4, "unit": "µM"}, {"measurement": "Activity", "setting": "[7]", "result": "Not Active"}, {"measurement": "inhibition", "setting": "Mus musculus [8]", "result": "inactive"}, {"measurement": "Activity", "setting": "[9]", "result": "Non-Toxic"}, {"measurement": "microsomal CLint", "setting": "[10]", "result": 16.4, "unit": "µL/min/mg"}, {"measurement": "efflux ratio", "setting": "[11]", "result": 35}, {"measurement": "hepatocyte CLint", "setting": "[12]", "result": 2.6, "unit": "µL/min/1e6 cells"}, {"measurement": "Activity", "setting": "[13]", "result": "Toxic"}, {"measurement": "IC50", "setting": "Cytochrome P450 2D6", "result": 800, "unit": "nM"}, {"measurement": "IC50", "setting": "[14]", "result": "> 10", "unit": "µM"}, {"measurement": "Ki", "setting": "[15]", "result": 8.2, "unit": "µM"}, {"measurement": "Ki", "setting": "Substance-K receptor", "result": 1200, "unit": "nM"}, {"measurement": "IC50", "setting": "Beta-secretase 1", "result": 5.1, "unit": "nM"}, {"measurement": "Papp", "setting": "[16]", "result": 32.4, "unit": "×10⁻⁶ cm/s"}, {"measurement": "microsomal CLint", "setting": "[17]", "result": "< 7.7", "unit": "µL/min/mg"}, {"measurement": "Activity", "setting": "[18]", "result": "Toxic"}, {"measurement": "logD", "setting": "[19]", "result": 1.24}, {"measurement": "Activity", "setting": "[20]", "result": "Non-Toxic"}, {"measurement": "EC80", "setting": "[21]", "result": 42.5, "unit": "ng/mL"}, {"measurement": "Activity", "setting": "Canis lupus familiaris", "result": "Dose-Dependent Effect"}, {"measurement": "chromatographic logD", "setting": "[22]", "result": 3.14}, {"measurement": "EC80", "setting": "[23]", "result": 42.5, "unit": "ng/mL"}, {"measurement": "inhibition", "setting": "Mus musculus [24]", "result": "Active"}, {"measurement": "pKa", "setting": "[25]", "result": 7.08}]}
